System: lashes and adjacent hairs
Test: Observation of lashes and adjacent hairs in glaucoma patients treated in one eye
Format: in vivo
From the text: In the course of treating patients having glaucoma, treatment may only be appropriate in one eye. […] The lash appearance on the lids of the treated eyes would have appeared quite attractive if it represented a bilateral phenomenon. As a result of its asymmetric nature, the long lashes on one side could be construed as disturbing from a cosmetic standpoint. A systemic examination was preformed as a result of the asymmetric phenomenon. It soon became apparent that this altered appearance was not an isolated finding. […] Definite differences could be identified to varying degrees in the lashes and adjacent hairs of all patients who were taking the drug on a unilateral basis for longer than 6 months.
The changes in the lashes were apparent on gross inspection in several patients once attention was focused on the issue. In those with light colored hair and lashes, the differences were only seen easily with the aid of the high magnification and lighting capabilities of the slit lamp biomicroscope. In the course of glaucoma follow-up examination, attention is generally immediately focused on the eye itself. As a result of the high power magnification needed only one eye is seen at a time and the eye is seen at a high enough power that the lashes are not in focus. […]

Structure (SMILES): CCNC(=O)CCC/C=C\C[C@@H]1[C@@H](/C=C/[C@@H](O)CCc2ccccc2)[C@H](O)C[C@@H]1O [bimatoprost]
- lash appearance in the treated eye versus the non-treated eye (glaucoma patient treated in one eye only): longer, thicker, and fuller
- hair growth in treated versus control areas, multiple parameters of hair appearance (many subjects, unilateral treatment): hair growth is stimulated
